Experimental data: US20150175599A1, “FAAH Inhibitors” (Ironwood Pharmaceuticals, Inc., priority 2010, published 2015)

What was measured:
[1] = target: T1, hERG channel (Homo sapiens, UniProt Q12809); test: hERG channel inhibition, automated patch clamp (IonWorks HT, hERG-CHO); format: cell-based; details: CHO cells expressing hERG, 600 s incubation; for inhibition at 600 s, 1 µM: 1 μM compound, read-out: hERG Channel Inhibition % (at 1 μM), vehicle-subtracted values; for inhibition at 600 s, 10 µM: 10 μM compound, read-out: hERG Channel Inhibition % (at 10 μM), vehicle-subtracted values
T1 construct: expressed in transfected cells; host or cells: CHO (hERG-CHO), under Geneticin selection
Outline: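 hERG-CHO cells held at 30 °C for 48 h before IonWorks HT patch clamp: from −80 mV to +40 for 2 s, then −50 mV for 2 s tail, repeated three times, before and after 600 s compound exposure. Third-pulse post/pre tail amplitude ratio gave percent inhibition; cells with seal <50 MOhm or tail <250 pA excluded.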

[2] = Pharmacokinetic study, plasma level 2 hours after oral dosing in rats; format: in vivo
Outline: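 Rats dosed by oral gavage in 1% DMA/99% Vitamin E TPGS; EDTA plasma taken by retro-orbital bleed 2 h post-dose. Acetonitrile precipitation with internal standard, LC/MS/MS quantitation against plasma standards 0.1–3000 ng/mL.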

T1 sequence (Q12809 whole entry): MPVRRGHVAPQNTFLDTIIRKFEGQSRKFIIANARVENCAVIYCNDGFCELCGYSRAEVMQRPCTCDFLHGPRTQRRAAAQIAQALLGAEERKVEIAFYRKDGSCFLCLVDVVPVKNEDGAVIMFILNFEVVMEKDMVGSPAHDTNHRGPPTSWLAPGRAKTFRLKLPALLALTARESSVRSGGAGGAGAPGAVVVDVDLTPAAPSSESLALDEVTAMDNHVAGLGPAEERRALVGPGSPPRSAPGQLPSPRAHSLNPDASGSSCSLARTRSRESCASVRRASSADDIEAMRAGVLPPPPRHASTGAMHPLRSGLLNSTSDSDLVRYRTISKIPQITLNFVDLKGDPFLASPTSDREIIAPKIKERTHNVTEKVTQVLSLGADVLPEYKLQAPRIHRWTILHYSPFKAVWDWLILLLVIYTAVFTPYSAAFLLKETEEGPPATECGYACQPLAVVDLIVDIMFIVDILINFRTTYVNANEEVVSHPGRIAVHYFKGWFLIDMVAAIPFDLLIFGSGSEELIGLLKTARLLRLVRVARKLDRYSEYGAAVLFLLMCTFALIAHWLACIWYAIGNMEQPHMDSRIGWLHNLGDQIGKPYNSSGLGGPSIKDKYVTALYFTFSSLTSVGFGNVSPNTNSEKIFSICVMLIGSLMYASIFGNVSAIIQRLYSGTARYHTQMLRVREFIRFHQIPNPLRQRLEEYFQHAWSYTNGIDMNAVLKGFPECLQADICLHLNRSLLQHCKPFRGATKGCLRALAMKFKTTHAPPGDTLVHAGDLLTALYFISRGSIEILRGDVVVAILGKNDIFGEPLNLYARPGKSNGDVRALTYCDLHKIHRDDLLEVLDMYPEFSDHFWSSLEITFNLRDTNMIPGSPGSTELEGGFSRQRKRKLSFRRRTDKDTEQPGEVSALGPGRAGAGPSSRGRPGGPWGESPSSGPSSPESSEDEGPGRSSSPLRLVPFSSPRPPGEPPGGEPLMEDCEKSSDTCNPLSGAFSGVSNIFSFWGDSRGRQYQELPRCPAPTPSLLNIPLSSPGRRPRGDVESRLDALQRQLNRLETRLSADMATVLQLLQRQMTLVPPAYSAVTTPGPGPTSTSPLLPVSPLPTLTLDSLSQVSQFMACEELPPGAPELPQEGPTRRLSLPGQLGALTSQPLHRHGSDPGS

Compound | inhibition at 600 s, 1 µM [1] | inhibition at 600 s, 10 µM [1] | 2 hr plasma level-ng/mL (rat, 10 mg/kg PO, 2 hr) [2]
COc1cc(NC(=O)C(=O)c2c(C)n(Cc3ccc(Cl)cc3)c3ccc(OC)c(F)c23)ccn1 [Compound 59, 2-(1-(4-chlorobenzyl)-4-fluoro-5-methoxy-2-methyl-1H-indol-3-yl)-N-(2-methoxypyridin-4-yl)-2-oxoacetamide] | < 25% | 25 to 50% | C (C = between 100 nM and 1000 nM)
COc1cc(NC(=O)C(=O)c2c(C)n(Cc3ccc(Cl)cc3)c3ccc(N(C)C)cc23)ccn1 [Compound 17, 2-(1-(4-chlorobenzyl)-5-(dimethylamino)-2-methyl-1H-indol-3-yl)-N-(2-methoxypyridin-4-yl)-2-oxoacetamide] | < 25% | < 25% | C (C = between 100 nM and 1000 nM)
COc1cc(NC(=O)C(=O)c2c(C)n(Cc3ccc(Cl)cc3)c3ccc(Br)cc23)ccn1 [Compound 18, 2-(5-bromo-1-(4-chlorobenzyl)-2-methyl-1H-indol-3-yl)-N-(2-methoxypyridin-4-yl)-2-oxoacetamide] | < 25% | < 25% | D (D = greater than 1000 nM)
COc1cc(NC(=O)C(=O)c2c(C)n(Cc3ncc(Cl)cc3F)c3ccc(C)cc23)ccn1 [Compound 33, 2-(1-((5-chloro-3-fluoropyridin-2-yl)methyl)-2,5-dimethyl-1H-indol-3-yl)-N-(2-methoxypyridin-4-yl)-2-oxoacetamide] | < 25% | < 25% | C (C = between 100 nM and 1000 nM)
COc1ccc(Cn2c(C)c(C(=O)C(=O)Nc3ccnc(OC)c3)c3cc(OC)c(F)cc32)nc1 [Compound 32, 2-(6-fluoro-5-methoxy-1-((5-methoxypyridin-2-yl)methyl)-2-methyl-1H-indol-3-yl)-N-(2-methoxypyridin-4-yl)-2-oxoacetamide] | < 25% | < 25% | C (C = between 100 nM and 1000 nM)
COc1cc(NC(=O)C(=O)c2c(C)n(Cc3ccc(Cl)cc3)c3ccc(OC(C)=O)cc23)ccn1 [Compound 1, 1-(4-chlorobenzyl)-3-(2-(2-methoxypyridin-4-ylamino)-2-oxoacetyl)-2-methyl-1H-indol-5-yl acetate] | < 25% | < 25% | A (A = Less than 10 nM)
COc1cc(NC(=O)C(=O)c2c(C)n(Cc3ncc(Cl)cc3Cl)c3ccccc23)ccn1 [Compound 31, 2-(1-((3,5-dichloropyridin-2-yl)methyl)-2-methyl-1H-indol-3-yl)-N-(2-methoxypyridin-4-yl)-2-oxoacetamide] | < 25% | < 25% | D (D = greater than 1000 nM)
COc1cc(NC(=O)C(=O)c2c(C)n(Cc3ccc(F)cc3F)c3cc(F)c(OC)cc23)ccn1 [Compound 14, 2-(1-(2,4-difluorobenzyl)-6-fluoro-5-methoxy-2-methyl-1H-indol-3-yl)-N-(2-methoxypyridin-4-yl)-2-oxoacetamide] | < 25% | < 25% | D (D = greater than 1000 nM)
COc1cc(NC(=O)C(=O)c2c(C)n(Cc3ncc(F)cc3F)c3cc(F)c(OC)cc23)ccn1 [Compound 101, 2-(1-((3,5-difluoropyridin-2-yl)methyl)-6-fluoro-5-methoxy-2-methyl-1H-indol-3-yl)-N-(2-methoxypyridin-4-yl)-2-oxoacetamide] | < 25% | < 25% | D (D = greater than 1000 nM)
COc1cc(NC(=O)C(=O)c2c(C)n(Cc3ccc(Cl)cc3)c3ccc(NC(C)=O)cc23)ccn1 [Compound 22, 2-(5-acetamido-1-(4-chlorobenzyl)-2-methyl-1H-indol-3-yl)-N-(2-methoxypyridin-4-yl)-2-oxoacetamide] | < 25% | < 25% | B (B = between 10 nM and 100 nM)
COc1cc(NC(=O)C(=O)c2c(C)n(Cc3ccc(Cl)cn3)c3cc(OC)c(Cl)cc23)ccn1 [Compound 67, 2-(5-chloro-1-((5-chloropyridin-2-yl)methyl)-6-methoxy-2-methyl-1H-indol-3-yl)-N-(2-methoxypyridin-4-yl)-2-oxoacetamide] | < 25% | < 25% | D (D = greater than 1000 nM)
COc1cc(NC(=O)C(=O)c2c(C)n(Cc3ccc(Cl)cc3)c3cc(OC)c(OC)cc23)ccn1 [Compound 44, 2-(1-(4-chlorobenzyl)-5,6-dimethoxy-2-methyl-1H-indol-3-yl)-N-(2-methoxypyridin-4-yl)-2-oxoacetamide] | < 25% | < 25% | C (C = between 100 nM and 1000 nM)
COc1cc(NC(=O)C(=O)c2c(C)n(Cc3ccc(Cl)cc3)c3cccc(OC)c23)ccn1 [Compound 45, 2-(1-(4-chlorobenzyl)-4-methoxy-2-methyl-1H-indol-3-yl)-N-(2-methoxypyridin-4-yl)-2-oxoacetamide] | < 25% | < 25% | C (C = between 100 nM and 1000 nM)
COc1cc(NC(=O)C(=O)c2c(C)n(Cc3ccc(Cl)cn3)c3cc(F)c(OC)cc23)ccn1 [Compound 64, 2-(1-((5-chloropyridin-2-yl)methyl)-6-fluoro-5-methoxy-2-methyl-1H-indol-3-yl)-N-(2-methoxypyridin-4-yl)-2-oxoacetamide] | < 25% | 25 to 50% | C (C = between 100 nM and 1000 nM)
COc1cc(NC(=O)C(=O)c2c(C)n(Cc3ccc(Cl)cn3)c3ccc(Cl)cc23)ccn1 [Compound 63, 2-(5-chloro-1-((5-chloropyridin-2-yl)methyl)-2-methyl-1H-indol-3-yl)-N-(2-methoxypyridin-4-yl)-2-oxoacetamide] | < 25% | 50 to 75% | C (C = between 100 nM and 1000 nM)
COc1cc(NC(=O)C(=O)c2c(C)n(Cc3ncc(Cl)cc3F)c3cc(F)c(OC)cc23)ccn1 [Compound 99, 2-(1-((5-chloro-3-fluoropyridin-2-yl)methyl)-6-fluoro-5-methoxy-2-methyl-1H-indol-3-yl)-N-(2-methoxypyridin-4-yl)-2-oxoacetamide] | < 25% | < 25% | D (D = greater than 1000 nM)
COc1ccc(Cn2c(C)c(C(=O)C(=O)Nc3ccnc(OC)c3)c3cc(OC)c(Cl)cc32)nc1 [Compound 98, 2-(6-chloro-5-methoxy-1-((5-methoxypyridin-2-yl)methyl)-2-methyl-1H-indol-3-yl)-N-(2-methoxypyridin-4-yl)-2-oxoacetamide] | < 25% | < 25% | C (C = between 100 nM and 1000 nM)
COc1cnc2c(c1)c(C(=O)C(=O)Nc1ccnc(OC)c1)c(C)n2Cc1ncc(Cl)cc1F [Compound 34, 2-(1-((5-chloro-3-fluoropyridin-2-yl)methyl)-5-methoxy-2-methyl-1H-pyrrolo[2,3-b]pyridin-3-yl)-N-(2-methoxypyridin-4-yl)-2-oxoacetamide] | < 25% | < 25% | D (D = greater than 1000 nM)
COc1cc(NC(=O)C(=O)c2c(C)n(Cc3ncc(F)cc3F)c3ccc(C)cc23)ccn1 [Compound 88, 2-(1-((3,5-difluoropyridin-2-yl)methyl)-2,5-dimethyl-1H-indol-3-yl)-N-(2-methoxypyridin-4-yl)-2-oxoacetamide] | < 25% | < 25% | D (D = greater than 1000 nM)
Cc1c(C(=O)C(=O)Nc2cccc(Cl)c2)c2cc(O)ccc2n1Cc1ccc(Cl)cc1 [Compound 71, 2-(1-(4-chlorobenzyl)-5-hydroxy-2-methyl-1H-indol-3-yl)-N-(3-chlorophenyl)-2-oxoacetamide] | < 25% | < 25% | A (A = Less than 10 nM)
COc1ccc2c(c1)c(C(=O)C(=O)Nc1ccnc(OC)c1)c(C)n2Cc1cnc(Cl)cn1 [Compound 12, 2-(1-((5-chloropyrazin-2-yl)methyl)-5-methoxy-2-methyl-1H-indol-3-yl)-N-(2-methoxypyridin-4-yl)-2-oxoacetamide] | < 25% | < 25% | C (C = between 100 nM and 1000 nM)
COc1cc(NC(=O)C(=O)c2c(C)n(Cc3ccc(Cl)cc3)c3ccc([N+](=O)[O-])cc23)ccn1 [Compound 19, 2-(1-(4-chlorobenzyl)-2-methyl-5-nitro-1H-indol-3-yl)-N-(2-methoxypyridin-4-yl)-2-oxoacetamide] | < 25% | 25 to 50% | C (C = between 100 nM and 1000 nM)
